The values below come from patent US9440977B2, “Compositions, uses and methods for their preparation” (priority 2013, dated 2016).

What all share (assay): JAK activity, Invitrogen SelectScreen Biochemical Kinase Profiling, Z'-LYTE
Holding throughout (details): ATP concentration at Km

In one test the target is JAK1 (Homo sapiens, UniProt P23458). How it is done:
(§1) JAK activity was determined using Invitrogen's SelectScreen® Biochemical Kinase Profiling Service using the Z'-LYTE Screening Protocol and Assay Conditions (ATP concentration at Km).

The target of a further test is JAK2 (Homo sapiens, UniProt O60674). The method, then: as §1
Another test deals with T1, JAK3 (Homo sapiens, UniProt P52333).
T1 sequence (P52333 1-1124): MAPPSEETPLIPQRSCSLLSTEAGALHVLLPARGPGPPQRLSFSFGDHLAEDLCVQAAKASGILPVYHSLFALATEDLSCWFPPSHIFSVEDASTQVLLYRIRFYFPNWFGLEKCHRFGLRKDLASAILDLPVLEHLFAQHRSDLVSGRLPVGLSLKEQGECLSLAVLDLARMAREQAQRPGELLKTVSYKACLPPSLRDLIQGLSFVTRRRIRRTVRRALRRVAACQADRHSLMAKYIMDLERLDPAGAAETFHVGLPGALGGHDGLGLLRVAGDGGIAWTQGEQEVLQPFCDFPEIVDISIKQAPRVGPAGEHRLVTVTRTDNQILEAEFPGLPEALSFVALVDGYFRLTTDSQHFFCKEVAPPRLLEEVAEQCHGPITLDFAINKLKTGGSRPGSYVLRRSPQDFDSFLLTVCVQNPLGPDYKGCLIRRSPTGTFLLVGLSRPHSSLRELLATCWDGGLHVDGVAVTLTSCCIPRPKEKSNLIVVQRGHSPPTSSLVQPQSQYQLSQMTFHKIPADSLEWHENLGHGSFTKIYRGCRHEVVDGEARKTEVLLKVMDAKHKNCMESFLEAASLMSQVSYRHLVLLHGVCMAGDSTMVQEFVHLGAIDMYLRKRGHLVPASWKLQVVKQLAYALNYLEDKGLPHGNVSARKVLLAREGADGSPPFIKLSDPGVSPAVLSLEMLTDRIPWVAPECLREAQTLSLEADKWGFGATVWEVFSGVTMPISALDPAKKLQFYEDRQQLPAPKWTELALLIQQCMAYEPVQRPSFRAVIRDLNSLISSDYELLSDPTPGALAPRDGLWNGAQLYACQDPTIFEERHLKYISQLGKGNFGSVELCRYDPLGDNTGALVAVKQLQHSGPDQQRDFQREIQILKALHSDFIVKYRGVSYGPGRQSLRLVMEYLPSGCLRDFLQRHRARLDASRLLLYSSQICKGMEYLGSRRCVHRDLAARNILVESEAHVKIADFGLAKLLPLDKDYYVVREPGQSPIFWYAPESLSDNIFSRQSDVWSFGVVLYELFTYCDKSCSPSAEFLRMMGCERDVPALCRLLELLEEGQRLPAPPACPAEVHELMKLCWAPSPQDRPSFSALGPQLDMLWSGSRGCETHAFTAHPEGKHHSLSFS
The method, then:
as §1

Chain of JAK2 (O60674 whole entry): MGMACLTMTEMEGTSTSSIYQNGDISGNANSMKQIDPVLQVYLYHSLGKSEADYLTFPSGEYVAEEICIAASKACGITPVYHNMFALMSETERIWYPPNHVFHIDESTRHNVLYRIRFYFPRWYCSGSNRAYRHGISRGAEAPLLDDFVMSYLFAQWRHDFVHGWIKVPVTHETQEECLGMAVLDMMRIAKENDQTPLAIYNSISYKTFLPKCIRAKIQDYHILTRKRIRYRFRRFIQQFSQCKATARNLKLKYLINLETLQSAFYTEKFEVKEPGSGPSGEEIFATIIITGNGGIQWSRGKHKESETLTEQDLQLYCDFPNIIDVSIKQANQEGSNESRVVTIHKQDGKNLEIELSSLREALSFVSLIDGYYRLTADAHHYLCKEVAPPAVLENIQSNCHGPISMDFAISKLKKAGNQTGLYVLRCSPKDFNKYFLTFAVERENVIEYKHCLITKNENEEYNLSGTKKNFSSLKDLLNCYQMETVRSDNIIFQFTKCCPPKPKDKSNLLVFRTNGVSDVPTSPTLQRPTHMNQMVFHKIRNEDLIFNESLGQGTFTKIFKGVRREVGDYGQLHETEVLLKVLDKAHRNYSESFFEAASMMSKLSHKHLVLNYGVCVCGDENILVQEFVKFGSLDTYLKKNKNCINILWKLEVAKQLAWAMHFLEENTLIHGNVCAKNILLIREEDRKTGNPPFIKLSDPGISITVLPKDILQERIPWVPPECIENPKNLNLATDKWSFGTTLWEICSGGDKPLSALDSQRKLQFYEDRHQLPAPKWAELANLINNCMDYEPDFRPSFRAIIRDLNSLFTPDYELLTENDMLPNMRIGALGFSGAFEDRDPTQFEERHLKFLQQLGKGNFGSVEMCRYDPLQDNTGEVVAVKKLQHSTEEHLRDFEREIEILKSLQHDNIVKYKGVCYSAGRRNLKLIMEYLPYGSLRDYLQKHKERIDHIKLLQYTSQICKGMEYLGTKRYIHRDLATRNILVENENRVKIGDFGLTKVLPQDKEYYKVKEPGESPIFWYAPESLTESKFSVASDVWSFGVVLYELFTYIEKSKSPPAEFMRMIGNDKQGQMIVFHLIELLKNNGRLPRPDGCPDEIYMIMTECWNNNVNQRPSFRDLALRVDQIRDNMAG
Chain of JAK1 (P23458 whole entry): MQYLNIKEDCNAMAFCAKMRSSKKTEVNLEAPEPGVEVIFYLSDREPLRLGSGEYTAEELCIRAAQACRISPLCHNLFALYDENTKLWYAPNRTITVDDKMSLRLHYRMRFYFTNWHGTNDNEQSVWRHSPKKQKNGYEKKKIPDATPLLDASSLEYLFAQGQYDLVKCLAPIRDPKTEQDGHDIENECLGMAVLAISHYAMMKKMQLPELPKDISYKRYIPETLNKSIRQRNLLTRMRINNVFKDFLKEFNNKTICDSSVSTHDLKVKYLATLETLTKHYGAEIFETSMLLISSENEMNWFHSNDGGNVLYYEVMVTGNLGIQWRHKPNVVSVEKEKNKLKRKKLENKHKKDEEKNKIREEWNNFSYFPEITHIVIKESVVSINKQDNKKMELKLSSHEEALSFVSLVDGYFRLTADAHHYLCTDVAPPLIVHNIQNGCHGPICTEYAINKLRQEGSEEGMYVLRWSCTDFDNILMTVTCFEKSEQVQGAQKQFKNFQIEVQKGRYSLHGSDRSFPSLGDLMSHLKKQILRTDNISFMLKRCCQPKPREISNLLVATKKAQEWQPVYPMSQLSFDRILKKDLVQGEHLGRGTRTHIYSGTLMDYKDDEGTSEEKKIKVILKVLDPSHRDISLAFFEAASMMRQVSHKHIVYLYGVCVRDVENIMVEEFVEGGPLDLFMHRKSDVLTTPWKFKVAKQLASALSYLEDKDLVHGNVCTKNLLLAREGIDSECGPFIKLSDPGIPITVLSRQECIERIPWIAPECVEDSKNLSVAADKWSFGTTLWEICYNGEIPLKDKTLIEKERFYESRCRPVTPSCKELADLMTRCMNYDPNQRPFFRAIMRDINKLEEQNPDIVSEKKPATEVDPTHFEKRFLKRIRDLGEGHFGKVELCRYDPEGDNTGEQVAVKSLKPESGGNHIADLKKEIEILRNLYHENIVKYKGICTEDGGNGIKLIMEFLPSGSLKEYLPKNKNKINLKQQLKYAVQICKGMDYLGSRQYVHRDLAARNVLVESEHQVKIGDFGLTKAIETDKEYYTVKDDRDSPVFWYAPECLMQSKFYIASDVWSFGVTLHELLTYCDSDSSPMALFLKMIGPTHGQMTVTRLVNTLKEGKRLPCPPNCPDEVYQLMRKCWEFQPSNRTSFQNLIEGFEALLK

By IC50 is commonly meant the concentration that inhibits the measured activity by half. As to `N#CCC(C1CCCC1)n1cc2c(n1)C(=O)c1c[nH]c3nccc-2c13` (stereo not drawn) [Example 1, 3-cyclopentyl-3-{7-oxo-4,5,10,12-tetraazatetracyclo[6.6.1.0^2,6.0^11,15]pentadeca-1(15),2,5,8,11,13-hexaen-4-yl}propanenitrile], the figures for the IC50 against JAK1, on JAK2 and on JAK3 were 10 to 100 nM, less than 10 nM and more than 100 nM, respectively.

Take `N#CCC(C1CCCC1)n1ncc2c1C(=O)c1c[nH]c3nccc-2c13` (stereo not drawn) [Example 2, 3-cyclopentyl-3-{7-oxo-4,5,10,12-tetraazatetracyclo[6.6.1.0^2,6.0^11,15]pentadeca-1(15),2(6),3,8,11,13-hexaen-5-yl}propanenitrile]: the figures for the 50% inhibitory concentration (IC50) on JAK1, against JAK2 and at JAK3 were more than 100 nM, 10 to 100 nM and more than 100 nM, respectively.

With `N#CC[C@H](C1CCCC1)n1cc2c(n1)C(=O)c1c[nH]c3nccc-2c13` [Example 4, (3R)-3-cyclopentyl-3-{7-oxo-4,5,10,12-tetraazatetracyclo[6.6.1.0^2,6.0^11,15]pentadeca-1(15),2,5,8,11,13-hexaen-4-yl}propanenitrile], the IC50 at JAK1 is 10 to 100 nM; on JAK2 it was less than 10 nM; against JAK3, more than 100 nM.
